Measured values published in patent US4812562A, “Cephalosporin derivatives” (Taisho Pharmaceutical Co., Ltd., priority 1985, dated 1989).
≈ marks a conversion by molar mass, not a printed value. Counter-ions that a name gives are not always drawn. Like-named read-outs stand apart in the source and are kept apart here.

Legend:
[1] = tested on: Staphylococcus aureus FDA 209P-JC; test: MIC by agar plate dilution method, Staphylococcus aureus FDA 209P-JC; format: cell-based; conditions: FDA209P, inoculum size 10^6 cells/ml
Method: (§1) Subsequently, there were tested the minimal inhibitory concentration (MIC) of the compounds of the present invention against various bacteria and the concentration of the compound in blood after oral administration to rats, and the results are shown.
(§2) The antibacterial activities of the compound of the present invention against various bacteria (inoculum size: 10^6 cells/ml) were tested by the agar plate dilution method, and the results are shown in the following Table 1.

Bacillus cereus S 1101 = test: MIC by agar plate dilution method, Bacillus cereus S 1101; format: cell-based; conditions: S1101
Method: as §1, §2

[2] = tested on: Morganella morganii IID 602; test: MIC by agar plate dilution method, Morganella morganii IID 602; format: cell-based; conditions: IID602
Method: as §1, §2

[3] = tested on: Klebsiella pneumoniae T 25; test: MIC by agar plate dilution method, Klebsiella pneumoniae T 25; format: cell-based; conditions: T25, inoculum size 10^6 cells/ml
Method: as §1, §2

[4] = concentration of the compound in blood after oral administration to rats; format: in vivo, Male wister rats; conditions: rat, 50 mg/kg, bioassay (Escherichia coli SC507)
Method: Male wister rats (7 weeks old) were administered orally with the test compound, and the change of the concentration of the compound in blood was measured.
Dosage of the test compound: 50 mg/kg
Quantitative method: Bioassy
(test bacterium: Escherichia coli SC507)

[5] = tested on: Escherichia coli NIHJ JC-2; test: MIC by agar plate dilution method, Escherichia coli NIHJ JC-2; format: cell-based; conditions: NIHJJC2, inoculum size 10^6 cells/ml
Method: as §1, §2

[6] = tested on: Serratia marcescens IID 618; test: MIC by agar plate dilution method, Serratia marcescens IID 618; format: cell-based; conditions: IID618
Method: as §1, §2

[7] = Bacillus cereus S 1101, inoculum size 10^6 cells/ml, read-out: MIC
[8] = Morganella morganii IID 602, inoculum size 10^6 cells/ml, read-out: MIC
[9] = Serratia marcescens IID 618, inoculum size 10^6 cells/ml, read-out: MIC

| Structure (SMILES) | MIC [1] | MIC (Bacillus cereus S 1101; [7]) | MIC [2, 8] | MIC [3] | concentration at 1 h [4] | concentration at 2 h [4] | concentration at 4 h [4] | MIC [5] | MIC [6, 9] | MIC (Bacillus cereus S 1101; Bacillus cereus) | MIC ([2]; Morganella morganii) | MIC ([6]; Serratia marcescens) |
| --- | --- | --- | --- | --- | --- | --- | --- | --- | --- | --- | --- | --- |
| NCCCSC1=C(C(=O)O)N2C(=O)[C@@H](NC(=O)/C(=N\OCC(=O)O)c3csc(N)n3)[C@H]2SC1 [D] | 6.25 µg/mL (≈ 12.1 µM) | 0.2 µg/mL (≈ 0.387 µM) | 0.39 µg/mL (≈ 0.755 µM) | 3.13 µg/mL (≈ 6.06 µM) | 11900 ng/mL | 16600 ng/mL | 15400 ng/mL | 0.78 µg/mL (≈ 1.51 µM) | 0.39 µg/mL (≈ 0.755 µM) |  |  |  |
| CC1=C(C(=O)O)N2C(=O)[C@@H](NC(=O)[C@H](N)c3ccccc3)[C@H]2SC1 [YY, Cefalexin, reference compound] | 0.78 µg/mL (≈ 2.25 µM) |  |  |  |  |  |  |  |  | ≤ 0.1 µg/mL | 200 µg/mL (≈ 576 µM) | > 400 µg/mL |
| NC(=O)CCSC1=C(C(=O)O)N2C(=O)[C@@H](NC(=O)/C(=N\OCC(=O)O)c3csc(N)n3)[C@H]2SC1 [F] | 12.5 µg/mL (≈ 23.6 µM) | 0.2 µg/mL (≈ 0.377 µM) | 0.1 µg/mL (≈ 0.188 µM) | 12.5 µg/mL (≈ 23.6 µM) |  |  |  | 1.56 µg/mL (≈ 2.94 µM) | 0.78 µg/mL (≈ 1.47 µM) |  |  |  |
| NC(=O)OCCSC1=C(C(=O)O)N2C(=O)[C@@H](NC(=O)/C(=N\OCC(=O)O)c3csc(N)n3)[C@H]2SC1 [G, 7β-{α-(2-aminothiazole-4-yl)-α-[(Z)-carboxymethoxyimino]acetamido}-3-(2-carbamoyloxy)ethylthio-3-cephem-4-carboxylic acid sodium salt] | 12.5 µg/mL | 0.2 µg/mL | ≤ 0.1 µg/mL | 6.25 µg/mL |  |  |  | 0.39 µg/mL | 0.78 µg/mL |  |  |  |
| Nc1nc(/C(=N/OCC(=O)O)C(=O)N[C@@H]2C(=O)N3C(C(=O)O)=C(SCc4ccccn4)CS[C@H]23)cs1 [E] | 12.5 µg/mL (≈ 22.7 µM) | 0.39 µg/mL (≈ 0.708 µM) | ≤ 0.1 µg/mL | 1.56 µg/mL (≈ 2.83 µM) |  |  |  | 0.39 µg/mL (≈ 0.708 µM) | 0.78 µg/mL (≈ 1.42 µM) |  |  |  |

Continued, in another order:

| MIC [1] | MIC (Bacillus cereus S 1101; [7]) | MIC [2, 8] | MIC [3] | concentration at 1 h [4] | concentration at 2 h [4] | concentration at 4 h [4] | MIC [5] | MIC [6, 9] | Structure (SMILES) | MIC (Bacillus cereus S 1101; Bacillus cereus) | MIC ([2]; Morganella morganii) | MIC ([6]; Serratia marcescens) |
| --- | --- | --- | --- | --- | --- | --- | --- | --- | --- | --- | --- | --- |
| 25 µg/mL (≈ 48.3 µM) | 0.39 µg/mL (≈ 0.754 µM) | ≤ 0.1 µg/mL | 6.25 µg/mL (≈ 12.1 µM) |  |  |  | 0.78 µg/mL (≈ 1.51 µM) | 1.56 µg/mL (≈ 3.01 µM) | COCCSC1=C(C(=O)O)N2C(=O)[C@@H](NC(=O)/C(=N\OCC(=O)O)c3csc(N)n3)[C@H]2SC1 [B] |  |  |  |
| 6.25 µg/mL (≈ 12.5 µM) | 0.2 µg/mL (≈ 0.401 µM) | < 0.1 µg/mL | 25 µg/mL (≈ 50.1 µM) | 28700 ng/mL | 19500 ng/mL | 4300 ng/mL | 1.56 µg/mL (≈ 3.13 µM) | 0.78 µg/mL (≈ 1.56 µM) | N#CCSC1=C(C(=O)O)N2C(=O)[C@@H](NC(=O)/C(=N\OCC(=O)O)c3csc(N)n3)[C@H]2SC1 [A] |  |  |  |
| 50 µg/mL | 0.78 µg/mL | 0.39 µg/mL | 25 µg/mL |  |  |  | 1.56 µg/mL | 1.56 µg/mL | CSC1=C(C(=O)O)N2C(=O)[C@@H](NC(=O)/C(=N\OCC(=O)O)c3csc(N)n3)[C@H]2SC1 [XX, 7{(2-aminothiazole-4-yl)-[(Z)carboxy-methoxyimino]acetamido3-methylthio-3cephem-4-carboxylic acid sodium salt, reference compound] |  |  |  |
| 6.25 µg/mL (≈ 12.4 µM) | 0.2 µg/mL (≈ 0.396 µM) | < 0.1 µg/mL | 25 µg/mL (≈ 49.5 µM) | 25600 ng/mL | 9100 ng/mL | 4000 ng/mL | 1.56 µg/mL (≈ 3.09 µM) | 1.56 µg/mL (≈ 3.09 µM) | Nc1nc(/C(=N/OCC(=O)O)C(=O)N[C@@H]2C(=O)N3C(C(=O)O)=C(SCCF)CS[C@H]23)cs1 [C] |  |  |  |
